Measured values: patent US6914045B2, “Glycopeptide antibiotics” (Wyeth Holdings Corporation, priority 2001, dated 2005)
Values after ≈ are worked out from the molar mass of the structure shown.

Key:
Assay in all cases: in vitro antibacterial evaluation, MIC by broth dilution
Format in all cases: cell-based
Enterococcus sp. = settings: broth dilution, 18 hours at 35° C.
Summary of the method: (§1)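 MIC = lowest antibiotic concentration preventing visible growth; inoculum 5×10^5 CFU/mL; drug range 64-0.06 μg/mL; Muller-Hinton II […]; NCCLS M7-A2 guidance.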

Escherichia coli = settings: 18 hours at 35° C.
Summary of the method: as §1

Staphylococcus sp. = settings: broth dilution, 18 hours at 35° C.
Summary of the method: as §1

MIC Enterococcus faecalis (ATCC 29212) (Enterococcus sp.; Enterococcus faecalis (ATCC 29212)): 8 µg/mL (≈ 5.64 µM) | MIC Enterococcus faecalis (GC 2242) (Enterococcus sp.; Enterococcus faecalis (GC 2242)): 8 µg/mL (≈ 5.64 µM) | MIC Enterococcus faecalis (GC 4552) (Enterococcus sp.; Enterococcus faecalis (GC 4552)): 8 µg/mL (≈ 5.64 µM) | MIC Enterococcus faecalis (ATCC 29212) (Enterococcus sp.; strain ATCC 29212): 8 µg/mL (≈ 5.64 µM) | MIC Enterococcus faecalis (GC 2242) (Enterococcus sp.; strain GC 2242): 8 µg/mL (≈ 5.64 µM) | MIC Enterococcus faecalis (GC 4552) (Enterococcus sp.; strain GC 4552): 8 µg/mL (≈ 5.64 µM) | MIC Escherichia coli (GC 4559) (Escherichia coli; strain GC 4559): >128 µg/mL | MIC Escherichia coli (GC 4560) (Escherichia coli; strain GC 4560): 0.5 µg/mL (≈ 0.352 µM) | MIC Coagulase Negative Staphylococcus (GC 4537) (Staphylococcus sp.): 2 µg/mL (≈ 1.41 µM) | MIC Coagulase Negative Staphylococcus (GC 4538) (Staphylococcus sp.): 1 µg/mL (≈ 0.704 µM) | MIC Coagulase Negative Staphylococcus (GC 4547) (Staphylococcus sp.): 1 µg/mL (≈ 0.704 µM) | MIC Staphylococcus aureus (ATCC 29213) (Staphylococcus sp.): 2 µg/mL (≈ 1.41 µM) | MIC Staphylococcus aureus (GC 1131) (Staphylococcus sp.): 2 µg/mL (≈ 1.41 µM) | MIC Staphylococcus aureus (GC 4535) (Staphylococcus sp.): 2 µg/mL (≈ 1.41 µM) | MIC Staphylococcus aureus-SMITH (GC 4536) (Staphylococcus sp.): 2 µg/mL (≈ 1.41 µM) | MIC Coagulase Negative Staphylococcus (GC 4537) (Staphylococcus sp.; strain GC 4537): 2 µg/mL (≈ 1.41 µM) | MIC Coagulase Negative Staphylococcus (GC 4538) (Staphylococcus sp.; strain GC 4538): 1 µg/mL (≈ 0.704 µM) | MIC Coagulase Negative Staphylococcus (GC 4547) (Staphylococcus sp.; strain GC 4547): 1 µg/mL (≈ 0.704 µM) | MIC Staphylococcus aureus (ATCC 29213) (Staphylococcus sp.; strain ATCC 29213): 2 µg/mL (≈ 1.41 µM) | MIC Staphylococcus aureus (GC 1131) (Staphylococcus sp.; strain GC 1131): 2 µg/mL (≈ 1.41 µM) | MIC Staphylococcus aureus (GC 4535) (Staphylococcus sp.; strain GC 4535): 2 µg/mL (≈ 1.41 µM) | MIC Staphylococcus aureus-SMITH (GC 4536) (Staphylococcus sp.; strain GC 4536): 2 µg/mL (≈ 1.41 µM)
Structure (SMILES): CC(c1ccccc1)C1NC(=O)CNC(=O)C(CO)NC(=O)C(C(O)C2CNC(=N)N2C2OC(CO)C(O)C(O)C2O)NC(=O)C(C(O)C2CNC(=N)N2)NC(=O)C(Cc2ccc(OC3OC(COC(=O)CCC4CCCC4)C(OC4OC(CO)C(O)C(O)C4O)C(O)C3O)cc2)NC1=O (stereo not shown) [Example 100b]
